Article PMC12016938, “A small molecule PKCε inhibitor reduces hyperalgesia induced by paclitaxel or opioid withdrawal” (JCI Insight, 2025)
Several values for one entry are separate records, joined by “and”; a condition that tells them apart may be missing. Equal entries are not always repeated.

Tested on: conditioned place aversion
Experiment: Conditioned place aversion precipitated by naloxone
Assay type: in vivo, DBA/2J mice
Details: for Preference score: individual mice, time in environment paired with naloxone (5 mg/kg, i.p.) minus time in it at baseline, negative = aversion
Method: In addition to hyperalgesia, withdrawal from repeated administration of morphine produces somatic signs of withdrawal and conditioned place aversion. We tested the effects of CP612 on these responses. […] Two hours after this last injection of saline or morphine, mice were administered naloxone (5 mg/kg, i.p.) to precipitate somatic signs of withdrawal and conditioned place aversion. Withdrawal from repeated administration of morphine evoked somatic signs of withdrawal (Figure 11, A–C, and Supplemental Figure 2); only the highest dose of CP612 (40 mg/kg) reduced them (Figure 11, A–C) [H PKC inhibition (3, n = 62) = 33.34, P < 0.001]. Withdrawal from repeated administration of morphine also evoked conditioned place aversion (Figure 11, A and C) [F PKC inhibition (5,78) = 7.16, P < 0.001; mice receiving repeated administration of saline with vehicle versus mice receiving repeated administration of morphine with vehicle, P < 0.001], and this was not modified by CP612 at any dose tested (all P > 0.079).
The place conditioning apparatus was an acrylic box enclosed in light- and sound-attenuating, ventilated chambers (MED Associates). The box had 2 compartments separated by a removable sliding door. […] The dimensions of each compartment were 13.5 × 27 × 17 cm. Infrared light beams and photodetectors located along the walls of the box measured general activity and location of the mouse in each compartment, which were recorded using Activity Monitor version 7.0.5.10 software (Med Associates). On day 0 (pretest), drug-naive mice were acclimated for 15 minutes to the place conditioning apparatus without the sliding door, so they had free access to both compartments of the apparatus. This established a baseline side preference, based on the amount of time spent in each compartment. […] On day 6 (conditioning day), mice were pretreated with vehicle (10 mL/kg, i.p.) or CP612 (5, 10, 20, or 40 mg/kg, i.p.), followed by a single injection of morphine (100 mg/kg, i.p.) 4 hours later. Two hours after this last injection of morphine, mice were administered naloxone (5 mg/kg, i.p.), to precipitate withdrawal, and were immediately confined to 1 side of the conditioning apparatus for 20 minutes. During this conditioning period, mice were filmed (Raspberry Pi Camera) to assess somatic signs of withdrawal ([39]). Given the limited number of cameras and the poor quality of some videos, we were only able to film a subset of mice. The following behaviors were given a score of 1 per occurrence and episode: body shakes (paw tremors and wet dog shakes), teeth chatter, rearing, hopping, wall climbing, and backpedaling. These scores were summed to obtain a global withdrawal score and were obtained from an independent observer who was blind to the experimental conditions. A subset of videos was scored by 2 observers, to ensure internal validity (Cronbach’s α = 0.980, Correlation Observer r = 0.97, slope 1.15, P < 0.005). On day 7 (test day), mice were placed in the conditioning apparatus with free access to both compartments, for 15 minutes. We recorded the time spent in each compartment.

N[C@H](CNC(=O)C1(c2ccc(Cl)cc2)CCCC1)c1ccc(C(=O)Nc2ccncc2)cc1 [CP612]
Preference score (Morphine + CP612 5 mg/kg): -0.0843 and -0.28 and -0.22 and -0.17 and -0.023 and -0.35 | Preference score (Morphine + CP612 10 mg/kg): -0.07 and -0.22 and -0.42 and -0.21 and -0.19 and -0.38 and -0.15 and -0.12 and 0.14 and -0.13 and -0.10 and 0.0341 and -0.23 | Preference score (Morphine + CP612 20 mg/kg): -0.0656 and -0.40 and -0.13 and -0.25 and -0.10 and -0.30 and -0.31 | Preference score (Morphine + CP612 40 mg/kg): -0.17 and -0.18 and -0.35 and -0.39 and 0.000111 and -0.22 and 0.013 and -0.28 and -0.25 and -0.09 and -0.27 | Effect on conditioned place aversion (male DBA/2J mice, CP612 5, 10, 20, 40 mg/kg i.p.): not modified
